US8629272B2, “Tricyclic pyrimidine derivatives as wnt antagonists” (Deutsches Krebsforschungszentrum, priority 2009, dated 2014)

Tests used:
Assay type in all cases: cell-based
Hek293T = assay: Cytotoxicity in Hek293T, CellTiterGlo; conditions: 24 h
Description: For examination of cytotoxicity in these cancer cell lines the commercial available CellTiterGlo® Reagent (Promega, USA) was used according to the manufactor. Compounds were applied to Hek293T (denoted (1)) or HepG2 (denoted (2)), cultured in Dulbecco's Modified Eagles Medium, supplemented with 10% fetal calf serum and 1% penicillin/streptomycin. Cells were grown in T75 flasks at 37° C., 5% CO2 and trypsinized when 60-80% confluent by adding 2 ml of 0.25% Trypsin-EDTA solution. Cells were then re-suspended into culture medium yielding approx. 4000 cells (1) or 4500 cells (2), suspended in 30 microl medium. 48 h after cell seeding, compounds were added to yield the desired final concentrations. 24 h after compound addition cytotoxicity was evaluated. For this purpose the media was removed and CellTiterGlo® was added according to the manufactors manual. In this assay the luciferase emission readout is directly correlated with the cellular amount of ATP, low luciferase emission thus is reflecting cytotoxicity of a compound. For the evaluation of the IC50 the compound was applied in increasing concentrations yielding final concentrations per well of 5 nM-100 microM.

[1] = system: human colon carcinoma cells HCT116; assay: Antiproliferative activity against HCT116, cell count
Description: (§1) For examination of cell line-specific cytotoxicity, compounds were applied to human colorectal cancer cells (HCT116, denoted (1); SW480, denoted (2); Dld-1, denoted (3)) and human fibroblasts (HFF-1, denoted (4); HS-68, denoted (5)), cultured in Mc Coy's (1) and Dulbecco's Modified Eagles Medium (2-5), supplemented with 10% ((1)-(3)) and 20% ((4), (5)) fetal calf serum and 1% penicillin/streptomycin. Cells were grown in T75 flasks at 37° C., 5% CO2 and trypsinized when 60-80% confluent by adding 2 ml of 0.25% Trypsin-EDTA solution. Cells were then re-suspended into culture medium and approx. 750 cells, suspended in 45 microl medium, were plated into each well of a black 384-well plate for fluorescence imaging experiments. 24-36 hr later 5 microl compound solution (100 microM compound dissolved in ultra pure water containing 1% DMSO), were added to achieve a final concentration of 10 microM and were incubated for at least 72 hr. Compound incubation was terminated by (a) fixation and (b) permeabilisation of cells, followed by (c) fluorescence labeling of cell nuclei for cytometric quantification or by immunocytochemistry for microscopic evaluation of cell morphology. The three steps were performed by replacing the solution of the previous step in each well of a 384-well plate by (a) 30 microl PBS (phosphate buffered saline) containing 5% PFA (paraformaldehyde), (b) 30 microl PBS containing 0.2% TritonX-100 and (c) 10 microl PBS containing Hoechst-33342 for cytometry or Hoechst-33342, FITC (fluorescein isothiocyanate-) labeled α-tubulin antibodies and TRITC-(tetramethylrhodamine isothiocyanate-) labeled phalloidin antibodies for microscopy. Solutions were incubated for 15 (a,b) and 30 min (c) in the dark at room temperature. Cells were washed twice between each step with 30 microl PBS. The assay system was miniaturized and adapted to automated workflow using liquid-handling robotics.
Cell line-specific cytotoxicity was quantified by counting the number of Hoechst labeled nuclei per well of a 384-well plate using a plate cytometer. Data obtained with the cytometer was analysed using standard data analysis software.
The examination of the antiproliferative activity against human colon carcinoma cells HCT116 was carried out in analogy to example 35. […] Compounds of the present invention have potent antiproliferative activity against human colon carcinoma cells as shown for HCT116 in Table 6.

human fibroblasts HS-68 = assay: Cell line specific cytotoxicity, count of Hoechst labeled nuclei, normal cells HS68
Description: as §1, with “24-36 hr later 5 microl compound solution (100 microM compound dissolved in ultra pure water containing 1% DMSO), were added to achieve a final concentration of 10 microM and were incubated for at least 72 hr.” left out
Cell line-specific cytotoxicity was quantified by counting the number of Hoechst labeled nuclei per well of a 384-well plate using a plate cytometer. Data obtained with the cytometer was analysed using standard data analysis software. […]

| SMILES | Normalized toxicity values (Hek293T) (Hek293T; 0.005 microM) | Normalized toxicity values (Hek293T) (Hek293T; 0.015 microM) | Normalized toxicity values (Hek293T) (Hek293T; 0.046 microM) | Normalized toxicity values (Hek293T) (Hek293T; 0.137 microM) | Normalized toxicity values (Hek293T) (Hek293T; 0.412 microM) | Normalized toxicity values (Hek293T) (Hek293T; 1.235 microM) | Normalized toxicity values (Hek293T) (Hek293T; 3.704 microM) | Normalized toxicity values (Hek293T) (Hek293T; 11.111 microM) | Normalized toxicity values (Hek293T) (Hek293T; 33.333 microM) | Normalized toxicity values (Hek293T) (Hek293T; 100.000 microM) | Normalized cell count (HCT 116) ([1]; 0.005 microM) | Normalized cell count (HCT 116) ([1]; 0.015 microM) | Normalized cell count (HCT 116) ([1]; 0.046 microM) | Normalized cell count (HCT 116) ([1]; 0.137 microM) | Normalized cell count (HCT 116) ([1]; 0.412 microM) | Normalized cell count (HCT 116) ([1]; 1.235 microM) | Normalized cell count (HCT 116) ([1]; 3.704 microM) | Normalized cell count (HCT 116) ([1]; 11.111 microM) | Normalized cell count (HCT 116) ([1]; 33.333 microM) | Normalized cell count (HCT 116) ([1]; 100.000 microM) | other results |
| --- | --- | --- | --- | --- | --- | --- | --- | --- | --- | --- | --- | --- | --- | --- | --- | --- | --- | --- | --- | --- | --- |
| CCOC(=O)C1=C(C)Nc2c(c3nnc(-c4cccc(OC)c4)n3c(=O)n2-c2ccccc2)C1c1ccccc1 (stereo not drawn) [Example 15, 3-(3-Methoxy-phenyl)-7-methyl-4-oxo-5,9-diphenyl-4,5,6,9-tetrahydro-1,2,3a,5,6-pentaaza-cyclopenta[a]naphthalene-8-carboxylic acid ethyl ester] | 1.1205 | 1.0500 | 1.2200 | 0.9283 | 0.9603 | 0.8915 | 1.0113 | 1.1550 | 1.0515 | 1.4175 | 1 | 1.039 | 1.013 | 0.9313 | 0.9219 | 0.865 | 0.7235 | 0.2716 | 0.257 | 0.1496 | Normalized cell count (HS68) (human fibroblasts HS-68; 0.005 micoM): 1; Normalized cell count (HS68) (human fibroblasts HS-68; 0.015 micoM): 0.9166; Normalized cell count (HS68) (human fibroblasts HS-68; 0.046 micoM): 1.018; Normalized cell count (HS68) (human fibroblasts HS-68; 0.137 micoM): 0.9967; Normalized cell count (HS68) (human fibroblasts HS-68; 0.412 micoM): 0.9484; Normalized cell count (HS68) (human fibroblasts HS-68; 1.235 micoM): 0.961; Normalized cell count (HS68) (human fibroblasts HS-68; 3.704 micoM): 0.9772; Normalized cell count (HS68) (human fibroblasts HS-68; 11.111 micoM): 0.9757; Normalized cell count (HS68) (human fibroblasts HS-68; 33.333 micoM): 0.9593; Normalized cell count (HS68) (human fibroblasts HS-68; 100.000 micoM): 0.9099 |
| CCOC(=O)C1=C(c2ccccc2)c2c(n(-c3ccccc3)c(=O)n3c(-c4cccc(OC)c4)nnc23)NC1C (stereo not drawn) [Example 16, 3-(3-Methoxy-phenyl)-7-methyl-4-oxo-5,9-diphenyl-4,5,6,7-tetrahydro-1,2,3a,5,6-pentaaza-cyclopenta[a]naphthalene-8-carboxylic acid ethyl ester] | 1.0215 | 0.8660 | 0.8370 | 0.8375 | 0.8593 | 0.8530 | 0.8778 | 0.9213 | 0.9450 | 0.9233 | 1 | 1.063 | 1.163 | 1.06 | 1.067 | 1.125 | 1.2 | 1.231 | 0.52 | 0.5801 | Normalized cell count (HS68) (human fibroblasts HS-68; 0.005 micoM): 1; Normalized cell count (HS68) (human fibroblasts HS-68; 0.015 micoM): 0.9904; Normalized cell count (HS68) (human fibroblasts HS-68; 0.046 micoM): 1.038; Normalized cell count (HS68) (human fibroblasts HS-68; 0.137 micoM): 1.056; Normalized cell count (HS68) (human fibroblasts HS-68; 0.412 micoM): 1.111; Normalized cell count (HS68) (human fibroblasts HS-68; 1.235 micoM): 1.051; Normalized cell count (HS68) (human fibroblasts HS-68; 3.704 micoM): 1.175; Normalized cell count (HS68) (human fibroblasts HS-68; 11.111 micoM): 1.144; Normalized cell count (HS68) (human fibroblasts HS-68; 33.333 micoM): 0.8005; Normalized cell count (HS68) (human fibroblasts HS-68; 100.000 micoM): 0.9046 |
| CCOC(=O)C1=C(c2ccccc2)c2c(n(-c3ccccc3)c(=O)n3c(-c4ccc(OC)cc4)nnc23)NC1C (stereo not drawn) [Example 18] | 1.1075 | 1.0110 | 1.0523 | 1.0088 | 1.0313 | 1.0733 | 1.1200 | 1.0825 | 1.1175 | 0.9883 | 1 | 0.9377 | 0.9859 | 0.8603 | 0.9166 | 0.8399 | 0.4154 | 0.1595 | 0.1555 | 0.1892 | Normalized cell count (HS68) (human fibroblasts HS-68; 0.005 micoM): 1; Normalized cell count (HS68) (human fibroblasts HS-68; 0.015 micoM): 0.9938; Normalized cell count (HS68) (human fibroblasts HS-68; 0.046 micoM): 1.014; Normalized cell count (HS68) (human fibroblasts HS-68; 0.137 micoM): 0.9488; Normalized cell count (HS68) (human fibroblasts HS-68; 0.412 micoM): 0.9736; Normalized cell count (HS68) (human fibroblasts HS-68; 1.235 micoM): 1.014; Normalized cell count (HS68) (human fibroblasts HS-68; 3.704 micoM): 0.7952; Normalized cell count (HS68) (human fibroblasts HS-68; 11.111 micoM): 0.5499; Normalized cell count (HS68) (human fibroblasts HS-68; 33.333 micoM): 0.3651; Normalized cell count (HS68) (human fibroblasts HS-68; 100.000 micoM): 0.4385 |
